Experimental data published in patent publication US20100273831A1, “FLUORO ALKYL SUBSTITUTED BENZIMIDAZOLE CANNABINOID AGONISTS” (priority 2007, published 2010).

Tests used:
[1] = biological target: T1, human CB1 (hCB1) receptor (Homo sapiens, UniProt P21554); test: Inhibition of forskolin-activated cAMP production upon activation of human CB1 receptor (HTRF assay, CHO-K1 cells); assay type: cell-based; conditions: agonism; CHO-K1 cells stably transfected with hCB1; pEC50=-log(EC50); relative to CP55490; read-out: CB-1 pEC50 (converted)
T1 construct: expressed in transfected cells; host or cells: CHO-K1
Protocol: (§1) Functional activity of the test compounds was assessed by measuring their potency to inhibit forskolin-activated cAMP production upon activation of the human CB1 (hCB1) or human CB2 (hCB2) receptor through homogenous time resolved fluorescence (HTRF) assays.
(§2) CHO-K1 cells stably transfected with either hCB1 or hCB2 were grown up to 80-90% confluence in T175 Falcon flasks in DMEM/NUT MIX F-12 culture medium complemented with 2% Solution A (5.10^6 IU/1 penicillin G, 5 g/l streptomycin sulphate, 5.5 g/l pyruvate, 14.6 g/l L-glutamine, 1M NaOH) and 10% foetal calf serum. Before the experiments, medium was removed, cells were washed with PBS/EDTA (140 mM NaCl, 1 mM Na2-EDTA, 8 mM Na2HPO4.2H2O, 8.5 mM KH2PO4, 2.7 mM KCl, 21 mM glucose), resuspended in stimulation buffer (HBSS 1×, IBMX 1 mM, Hepes 5 mM, MgCl2 10 mM, BSA 0.1%, pH 7.4). Cells were diluted to a concentration of 8.10^5 cell/ml for hCB1 experiments and 10^6 cells/ml for hCB2 experiments. Assays were performed using the cAMP Dynamic HTRF kit (CIS bio international, France) according to the recommendations of the manufacturer.
For CB1, each well of a 96 flat bottom black polystyrene assay plate (Costar) was filled with 25 μl stimulation buffer containing 6 μM forskolin and either test compound (in 2% DMSO), 2% DMSO or 2 μM CP55490 (in 2% DMSO). Then, 25 μl of the diluted cells was added (20,000 cells/well). After 30 minutes incubation in dark at room temperature, 25 μl cAMP-XL665 and 25 μl anti-cAMP cryptate (both at a final dilution of 1/80) was added to the cells.
(§3) After equilibration of the reaction mixtures for 1 to 24 hours in dark at room temperature, fluorescence was measured at 665 nm and 620 nm using a Discovery microplate fluorescence counter (Perkin Elmer), and the signal ratio of 665 nm/620 nm was calculated. The signal ratios of the test compounds were expressed relative to the signal ratios of the DMSO control (maximal signal ratio, no inhibition of cAMP) and CP55490 or WIN55212-2 for hCB1 and hCB2, respectively (minimal signal ratio, maximal inhibition of cAMP). From the dose response curves generated for each test compound, the dose at which 50% of the maximal inhibition of cAMP level is observed (EC50, expressed in the Tables as pEC50=−log(EC50) values) and the level of inhibition reached with 10 μM of the test compound compared to CP55490 (for hCB1) or WIN55212-2 (for hCB2) was calculated.

[2] = biological target: T2, human CB2 (hCB2) receptor (Homo sapiens, UniProt P34972); test: Inhibition of forskolin-activated cAMP production upon activation of human CB2 receptor (HTRF assay, CHO-K1 cells); assay type: cell-based; conditions: agonism; CHO-K1 cells stably transfected with hCB2; pEC50=-log(EC50); relative to WIN55212-2; read-out: CB-2 pEC50 (converted)
T2 construct: expressed in transfected cells; host or cells: CHO-K1
Protocol: as §1, §2
For CB2, each well of a 384 flat bottom black polystyrene assay plate (Costar) was filled with 10 μl stimulation buffer containing 15 μM forskolin and either test compound (in 3% DMSO), 3% DMSO or 10 μM Win55212-2 (in 3% DMSO). Then, 20 μl of the diluted hCB2-CHO-K1 cells was added (20,000 cells/well). After 30 minutes incubation in dark at room temperature, 10 μl cAMP-XL665 and 10 μl anti-cAMP cryptate (both at a final dilution of 1/100) was added to the cells.
as §3

T2 sequence (P34972 whole entry): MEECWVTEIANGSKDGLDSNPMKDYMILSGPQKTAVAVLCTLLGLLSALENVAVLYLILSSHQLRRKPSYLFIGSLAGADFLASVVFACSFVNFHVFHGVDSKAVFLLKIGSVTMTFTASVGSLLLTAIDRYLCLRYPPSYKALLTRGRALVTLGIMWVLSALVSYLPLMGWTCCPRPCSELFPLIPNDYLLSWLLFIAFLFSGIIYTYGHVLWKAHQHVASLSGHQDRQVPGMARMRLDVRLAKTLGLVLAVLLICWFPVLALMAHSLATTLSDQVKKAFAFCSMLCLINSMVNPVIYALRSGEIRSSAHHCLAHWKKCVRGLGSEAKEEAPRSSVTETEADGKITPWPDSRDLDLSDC
T1 sequence (P21554 whole entry): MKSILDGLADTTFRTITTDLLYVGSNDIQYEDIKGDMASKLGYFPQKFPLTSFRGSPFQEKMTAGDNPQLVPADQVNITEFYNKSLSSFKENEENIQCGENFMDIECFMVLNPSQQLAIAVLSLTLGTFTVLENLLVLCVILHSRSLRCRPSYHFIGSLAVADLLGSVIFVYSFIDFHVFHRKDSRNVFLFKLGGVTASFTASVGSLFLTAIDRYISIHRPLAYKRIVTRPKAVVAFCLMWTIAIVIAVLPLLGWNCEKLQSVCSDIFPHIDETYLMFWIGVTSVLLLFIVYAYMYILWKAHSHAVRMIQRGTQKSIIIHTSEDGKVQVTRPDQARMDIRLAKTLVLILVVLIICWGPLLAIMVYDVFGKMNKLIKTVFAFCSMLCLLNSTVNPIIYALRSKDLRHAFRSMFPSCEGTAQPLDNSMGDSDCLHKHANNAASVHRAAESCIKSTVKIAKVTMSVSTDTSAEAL

SMILES | EC50 [1] [nM] | EC50 [2] [nM] | melting point [°C]
CC(C)(C)c1nc2cc(S(=O)(=O)Cc3ccc(C#N)cc3)ccc2n1CCCCC(F)(F)F [compound 19] | > 10000 | 2 | 
CC(C)(C)c1nc2cc(Sc3ccc(C#N)cc3)ccc2n1CCCC(F)(F)F [compound 9] | 25.1 | 1 | 
CC(C)(C)c1nc2cc(S(=O)(=O)C(C)(C)c3ccc(C#N)cc3)ccc2n1CCCCC(F)(F)F |  |  | 187.6
CC(C)(C)c1nc2cc(S(=O)(=O)C3CCNC3=O)ccc2n1CCCC(F)(F)F (stereo not drawn) [compound 16] | 3980 | 2.51 | 
CC(C)(C)c1nc2cc(S(=O)(=O)CC3CC3)ccc2n1CCCCC(F)(F)F [compound 11] | 31.6 | 1.58 | 
CC(C)(C)c1nc2cc(Sc3cn[nH]c3)ccc2n1CCCC(F)(F)F [compound 8] | > 10000 | 0.631 | 
CC(C)(C)c1nc2cc(S(=O)(=O)c3ccncc3)ccc2n1CCCCC(F)(F)F [compound 13] | 200 | 1.58 | 147.6
CC(C)(C)c1nc2cc(S(=O)(=O)C3CCNC3=O)ccc2n1CCCC(F)(F)F (stereo not drawn) |  |  | 208.7
CC(C)(C)c1nc2cc(S(=O)(=O)CC3CC3)ccc2n1CCCC(F)(F)F [compound 3] | 316 | 1.26 | 
CC(C)(C)c1nc2cc(S(=O)(=O)c3ccc(C#N)cc3)ccc2n1CCCC(F)(F)F |  |  | 165.1
CC(C)(C)c1nc2cc(S(=O)(=O)C(C)(C)c3ccc(C#N)cc3)ccc2n1CCCCC(F)(F)F [compound 20] | 2000 | 1.58 | 
CC(C)(C)c1nc2cc(S(=O)(=O)c3cn[nH]c3)ccc2n1CCCC(F)(F)F [compound 5] | 1260 | 0.794 | 220.8
CC(C)(C)c1nc2cc(S(=O)(=O)c3ccc(C(N)=O)cc3)ccc2n1CCCC(F)(F)F [compound 18] | 2000 | 3.16 | 
CC(C)(C)c1nc2cc(S(=O)(=O)c3ccncc3)ccc2n1CCCC(F)(F)F |  |  | 155.4
CC(C)(C)c1nc2cc(SCC3CC3)ccc2n1CCCCC(F)(F)F [compound 14] | 10 | 2 | 
COc1ccc(CSc2ccc3c(c2)nc(C(C)(C)C)n3CCCCC(F)(F)F)cc1 [compound 10] | > 10000 | 6.31 | 
CC(C)(C)c1nc2cc(S(=O)(=O)c3ccncc3)ccc2n1CCCC(F)(F)F [compound 4] | 2510 | 0.398 | 
CC(C)(C)c1nc2cc(S(=O)(=O)C(F)(F)c3ccc(C#N)cc3)ccc2n1CCCCC(F)(F)F [compound 21] | 79.4 | 3.16 | 
CC(C)(C)c1nc2cc(S(=O)(=O)c3ccc(C#N)cc3)ccc2n1CCCC(F)(F)F [compound 6] | 79.4 | 0.398 | 
CC(C)(C)c1nc2cc([S+]([O-])c3ccc(C#N)cc3)ccc2n1CCCC(F)(F)F (stereo not drawn) [compound 7] | > 10000 | 2.51 | 
CC(C)(C)c1nc2cc(S(=O)(=O)c3ccc(C#N)cc3)ccc2n1CCCCC(F)(F)F [compound 12] | 25.1 | 1 | 180.1
CC(C)(C)c1nc2cc(S(=O)(=O)Cc3ccc(C#N)cc3)ccc2n1CCCCC(F)(F)F |  |  | 177.4
COc1ccc(CSc2ccc3c(c2)nc(C(C)(C)C)n3CCCC(F)(F)F)cc1 [compound 1] | > 10000 | 5.01 | 
COc1ccc(CSc2ccc3c(c2)nc(C(C)(C)C)n3CCCC(F)(F)F)cc1 |  |  | 143.2
CC(C)(C)c1nc2cc(S(=O)(=O)c3ccc(C(N)=O)cc3)ccc2n1CCCC(F)(F)F |  |  | 207.8
CC(C)(C)c1nc2cc(S(=O)(=O)C3CCNC3=O)ccc2n1CCCCC(F)(F)F (stereo not drawn) [compound 23] | 1580 | 5.01 | 
CC(C)(C)c1nc2cc(S(=O)(=O)Cc3ccc(C(N)=O)cc3)ccc2n1CCCCC(F)(F)F [compound 22] | 79.4 | 2 | 222.8
